Four compounds from patent US20140322145A1, “ANTIMICROBIAL COMPOSITION” (Rohm and Haas Company, priority 2011, published 2014) can be followed below.

Each structure is given as a SMILES string.

Holding throughout (assay type): cell-based
In assay [1] the test system is Escherichia coli (10536 strain). In words: 15 seconds contact-time bacterial kill assay, microtitre plate, plate counts (Examples 1 and 3). The conditions noted are these: for MBC of antimicrobial alcohol: alcohol alone. The method, then:
The efficacies of antimicrobial agents can be usefully compared by determining the Minimum Biocidal Concentration (MBC). The MBC is defined as the lowest absolute concentration of the particular active that provides complete kill (zero bacterial growth).
Antimicrobial efficacy is tested against a representative pathogenic bacterial organism, Gram negative Escherichia coli. Concentrations of actives are expressed in terms of the percentage weight/volume (% w/v) throughout Example 1.
An overnight culture of Escherichia coli (10536 strain) was prepared in 50 ml total volume of TSB broth, grown for ca. 18 hrs at 37° C. and shaken at 150 rpm. 1 ml of this overnight E. coli culture was transferred to 50 ml of fresh TSB broth and incubated at 37° C. at 150 rpm for ca. 4 hours. This culture was separated into equal volumes and centrifuged at 4000 rpm for 15 minutes, washed with sterile saline (0.85% NaCl), centrifuged once more and re-suspended in saline to give a final concentration of 0.8 OD620 equivalent to about 10^8 cells per milliliter for this particular organism. Here, OD620 indicates the absorbance of a sample in a cuvette of 1.0 cm path length at a wavelength of 620 nm. This bacterial stock was used for assaying against antimicrobial actives (in triplicate).
The following assay describes the testing of 8 materials using 6 dilutions across half of a 96-well micro titre plate (MTP). Using this approach it is possible to assay 16 actives (without replicates) with one full dilution plate, replicating this set up in two halves of the plate columns, 1-6 and 7-12.
1M solutions of the test actives were prepared in dimethylsulphoxide (DMSO).
Aliquots (270 μl) of the materials at 1.11 times the final concentration were dispensed into the wells of the MTP along one column (A1-H1). This MTP was labelled as the “Screening plate”.
In another MTP, labelled as the “Dilution plate”, 270 μl of D/E neutralising solution from DIFCO Composition was added to column 1. The composition of the neutralising solution was as follows: pancreatic digest of casein, 5.0 g/L; Yeast Extract, 2.5 g/L; Dextrose, 10 g/L, sodium thioglycollate, 1.0 g/L, sodium thiosulphate, 6.0 g/L; sodium bisulphite. 2.5 g/L; Polysorbate 80, 5.0 g/L; lecithin 7.0 g/L; bromocresol purple, 0.02 g/L with a pH in the range 7.6±0.2.
270 μl of tryptone diluent solution was added to all the remaining wells of the Dilution MTP (columns 2-6).
Bacterial stock (30 μl) was then added to the prepared 270 μl of the solution of actives in the Screening Plate and mixed, using a multichannel pipette with 8 tips to aspirate and dispense the same volume of bacterial stock in parallel to 8 wells in rows A-H. After a contact time of 15 seconds, the mixtures were quenched by transferring 30 μl volumes of the mixtures into the 270 μl DIE neutralising solution in the prepared dilution plate, using aspiration to mix. After exactly 5 minutes in the DIE neutralising solution, 30 μl volumes were transferred from column 1 to column 2 of the Dilution MTP and mixed, before transferring further 30 μl volumes from column 2 into column 3. This process was repeated serially diluting the bacteria across the plate to column 6.
30 μl volumes from each well in the Dilution MTP were transferred onto pre-labelled segment of Tryptone Soya Agar (TSA) plates starting from the lowest bacterial concentration (highest dilution, column 6) to the highest bacterial concentration (column 1). The TSA plates were allowed to stand for ca. 2 hours so that the 30 μl inocula spots could dry and the plates were then inverted and incubated overnight at 37° C. before enumerating the bacterial colonies at the labelled dilutions to determine the effects of the actives on bacterial growth.
Mean bacterial survival numbers NMBS (expressed in Log CFU/ml) are obtained by first determining the segment of the TSA plate where the number of bacterial colonies is countable. From the colony number in this segment, NMBS is calculated by the formula: […]

The test system of assay [2] is Escherichia coli (E. coli—ATCC #10536). In words: Automated assessment of efficacy in surfactant base (Example 4). The conditions noted are these: for 15 second bactericidal efficacy in combination with thymol: at concentrations lower than their MBC in the same surfactant formulation; for MBC (minimum biocidal concentration): in 2.85% sodium cocoyl glycinate + 1.85% sodium lauroamphoacetate solution at pH 10. The method, then: In these examples, the efficacy of combinations of thymol and antimicrobial alcohols of the invention were tested in a surfactant cleansing formulation comprising 2.85% sodium cocoyl glycinate and 1.85% sodium lauroamphoacetate. This corresponds to a 50% in use dilution with water of a typical neat formulation containing 5.7% cocoyl glycinate and 3.7% % sodium lauroamphoacetate during hand washing. Solutions were prepared such that the concentrations of the surfactant components and test actives were 1.1 times the final desired concentration in order to allow for dilution with the bacterial inoculum in the test. The solutions were manually adjusted to pH 10.0 by dropwise addition of sodium hydroxide solution, as measured with a pH meter at ambient temperature. Solutions of the thymol and/or antimicrobial alcohols of the invention were prepared at a maximum of 24 hours before testing. The same thymol and antimicrobial alcohols were used as in Examples 1 and 3.
The efficacy of the combinations of the present invention was determined against the same bacterium as in Example 1, Escherichia coli (E. coli—ATCC #10536), at a concentration of approximately 1×10^8 bacteria per mL.
Tests were conducted using standard microtiter plate assays using an automated liquid handling system. 270 μl of the surfactant test solution was pipetted into each well of the microtitre plate (Nunc F Gamma Irradiated 96F untreated microtitre plates of clear polystyrene) and 30 μl of the bacterial suspension was then added. After exactly 15 seconds of bacterial exposure, a 30 μl volume of bacterial cells was withdrawn and transferred to 270 μl of D/E quench solution. After 5 minutes in the DIE quench, the optical density (OD) was measured for each plate in turn at two specific wavelengths (450 nm and 590 nm). These provide a dual check of antimicrobial activity, as the OD450 reading is specific for the yellow colour of DIE quench when bacterial growth is observed, whereas OD590 is specific for the initial purple colour of the DIE quench which is retained if no bacterial growth is observed. After the time zero OD measurements, plates were then incubated at 37° C. overnight (16 hours) before repeating the OD measurements. Delta OD values were calculated by subtracting […] at time=16 hours. Bacterial growth is observed as an increase in OD450 and a decrease in OD590. To identify antibacterially efficacious systems (those preventing appreciable bacterial growth after incubation), the following threshold changes in OD readings have been adopted: if (1). OD450 increases by less than 0.2 absorbance unit (AU) on incubation and (2). OD590 decreases by less than 0.35 AU on incubation. Conversely, where OD450 increases by more than 0.1 AU and OD590 decreases by more than 0.1 AU after incubation, corresponding to a colour shift from purple to yellow, the test system allows bacterial growth and is not deemed efficacious. Four replicate measurements in the same plate have been made for each test system. The number of replicate wells showing either bacterial growth or no growth is also readily assessed by eye by following the colour change. Thymol and terpineol were tested both alone and in combination for comparison purposes.
In each case, binary mixtures were assessed in the weight to weight ratio of thymol to antimicrobial alcohol of 1:2.5.

Assay [3] shares this test system. Description: High resolution MBC synergy assay in phosphate buffer containing 35% dipropylene glycol (Example 2). The conditions noted are these: complete kill in 15 seconds; other component 0. As to the method: In this Example, a wide range of combinations of chemicals was tested by conducting high resolution MBC assays of isocyclogeraniol in the presence of various concentrations of thymol. The materials were sourced in the same way as for Example 1. Synergy tests were conducted using standard microtiter plate assays with phosphate buffer containing 35% dipropylene glycol (DPG). […] The MBC plate was inoculated one column at a time with the test microorganism. An aliquot of the inoculated well was transferred at 15 seconds to a plate containing a neutralizing agent (D/E Neutralizing Broth), mixed and held for 5 minutes before being transferred to a growth plate containing trypticase soy broth (TSB). The TSB plate was incubated at 37° C. and read for the presence I absence of growth at 24 hours. […] This microorganism is representative of natural contaminants in many consumer and industrial applications.

The mark [4] stands for this setting: Table 10, from the data in Table 9, 15 seconds.

`CC1CCC(CO)C(C)C1` (centres unmarked) [dihydrofloralol, (2,4-dimethylcyclohexyl)methanol]: the “MBC (minimum biocidal concentration)” value in assay [1] (setting [4]) and in assay [2] was 0.5 % w/v in each case. Also, in assay [1] (Table 11, 15 seconds), the “MBC of antimicrobial alcohol” value was 0.5 % (w/v). The “15 second bactericidal efficacy in combination with thymol” value (“15 second bactericidal efficacy” below) in assay [2] is recorded as “complete kill in all 4 replicates”.
Take `CC1=CCC(CO)C(C)C1` (centres unmarked) [floralol, (4,6-dimethylcyclohex-3-en-1-yl)methanol]: in assay [1] (setting [4]), the “MBC (minimum biocidal concentration)” value worked out at 0.3 % w/v. Besides, in assay [1] (Table 11, 15 seconds), the “MBC of antimicrobial alcohol” value was 0.3 % (w/v). Further, in assay [2], the “15 second bactericidal efficacy” value was “complete kill in all 4 replicates” and the “MBC (minimum biocidal concentration)” value is listed as 0.4 % w/v.
Turning to `CC1=CC(C)C(CO)C(C)C1` (centres unmarked) [isocyclogeraniol, (2,4,6-trimethylcyclohex-3-en-1-yl)methanol], the “MBC (minimum biocidal concentration)” value is 0.3 % w/v in assay [1] (Table 4, lowest concentration giving zero bacterial survival after 15 seconds, upper boundaries); “higher than the highest tested concentrations” in assay [2]; more than 0.5 % w/v in assay [2] (listed as Isocyclogeraniol). In addition, the “MBC of antimicrobial alcohol” value in assay [1] (Table 5, 15 seconds) is reported as 0.3 % (w/v). For the same compound, the “MBC of component alone (MBCA, MBCB)” value in assay [3] stood at 0.6 weight %. In assay [2], the “15 second bactericidal efficacy” value was “complete kill in all 4 replicates”.
Turning to `Cc1ccc(C(C)C)c(O)c1` [thymol, 2-isopropyl-5-methylphenol], the MBC of thymol in assay [1] (Table 5, thymol alone, 15 seconds) is listed as 0.05 % (w/v); in assay [1] (Table 11, MBC of thymol of Example 1), 0.05 % (w/v). In assay [3], the “MBC of component alone (MBCA, MBCB)” value is given as 0.5 weight %.
